# Test results taken from ChEMBL document CHEMBL1201862, “PubChem BioAssay data set” (2004).
#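 The compound was tested at five concentrations on cells cultured in 96-well plates, with a 48-hour exposure period. GI50: concentration for 50% inhibition of growth.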 The source made the active and inactive calls. Cut-off read from the data, not from the text of the source: active = GI50 up to about 1.1 µM and inactive = higher.
# Key:
# Experiment in all cases: NCI-60 cell line screen, 48 h
# [1] = tested on: 786-0
# [2] = tested on: A498
# [3] = tested on: A549
# [4] = tested on: ACHN
# [5] = tested on: CAKI-1
# [6] = tested on: COLO 205
# [7] = tested on: DLD-1
# [8] = tested on: DMS-273
# [9] = tested on: EKVX
# [10] = tested on: HCC 2998
# [11] = tested on: HCT-116
# [12] = tested on: HCT-15
# [13] = tested on: HL-60
# [14] = tested on: HOP-62
# [15] = tested on: HOP-92
# [16] = tested on: HT-29
# [17] = tested on: IGROV-1
# [18] = tested on: K562
# [19] = tested on: KM-20L2
# [20] = tested on: KM12
# [21] = tested on: LOX IMVI
# [22] = tested on: LXFL 529
# [23] = tested on: M14
# [24] = tested on: MOLT-4
# [25] = tested on: Malme-3M
# [26] = tested on: NCI-H226
# [27] = tested on: NCI-H23
# [28] = tested on: NCI-H460
# [29] = tested on: NCI-H522
# [30] = tested on: OVCAR-3
# [31] = tested on: OVCAR-4
# [32] = tested on: OVCAR-5
# [33] = tested on: OVCAR-8
# [34] = tested on: RPMI-8226
# [35] = tested on: RXF 393
# [36] = tested on: RXF 631
# [37] = tested on: SF-268
# [38] = tested on: SF-295
# [39] = tested on: SF-539
# [40] = tested on: SK-MEL-28
# [41] = tested on: SK-MEL-5
# [42] = tested on: SK-OV-3
# [43] = tested on: SN12C
# [44] = tested on: SNB-19
# [45] = tested on: SNB-75
# [46] = tested on: SNB-78
# [47] = tested on: SR
# [48] = tested on: SW-620
# [49] = tested on: TK-10
# [50] = tested on: U-251
# [51] = tested on: UACC-257
# [52] = tested on: UACC-62
# [53] = tested on: UO-31
structure (smiles),measurement,setting,value
Cc1cc(NS(=O)(=O)c2ccc(NC(=O)c3cccc4c(Nc5ccc(S(=O)(=O)N=C(N)N)cc5)c5ccccc5nc34)cc2)no1,GI50,[1],> 100 µM (inactive)
same,GI50,[2],> 100 µM (inactive)
same,GI50,[3],> 100 µM (inactive)
same,GI50,[4],> 100 µM (inactive)
same,GI50,[5],> 100 µM (inactive)
same,GI50,[6],> 100 µM (inactive)
same,GI50,[7],> 100 µM (inactive)
same,GI50,[8],> 100 µM (inactive)
same,GI50,[9],> 100 µM (inactive)
same,GI50,[10],> 100 µM (inactive)
same,GI50,[11],> 100 µM (inactive)
same,GI50,[12],> 100 µM
same,GI50,[13],> 100 µM (inactive)
same,GI50,[14],> 100 µM (inactive)
same,GI50,[15],> 100 µM (inactive)
same,GI50,[16],> 100 µM (inactive)
same,GI50,[17],> 100 µM (inactive)
same,GI50,[18],> 100 µM (inactive)
same,GI50,[19],> 100 µM (inactive)
same,GI50,[20],> 100 µM (inactive)
same,GI50,[21],> 100 µM (inactive)
same,GI50,[22],> 100 µM (inactive)
same,GI50,[23],> 100 µM (inactive)
same,GI50,[24],> 100 µM (inactive)
same,GI50,[25],> 100 µM (inactive)
same,GI50,[26],> 100 µM (inactive)
same,GI50,[27],> 100 µM (inactive)
same,GI50,[28],> 100 µM (inactive)
same,GI50,[29],> 100 µM (inactive)
same,GI50,[30],> 100 µM (inactive)
same,GI50,[31],> 100 µM (inactive)
same,GI50,[32],> 100 µM (inactive)
same,GI50,[33],> 100 µM (inactive)
same,GI50,[34],> 100 µM (inactive)
same,GI50,[35],> 100 µM (inactive)
same,GI50,[36],> 100 µM (inactive)
same,GI50,[37],> 100 µM (inactive)
same,GI50,[38],> 100 µM (inactive)
same,GI50,[39],> 100 µM (inactive)
same,GI50,[40],> 100 µM (inactive)
same,GI50,[41],> 100 µM (inactive)
same,GI50,[42],> 100 µM (inactive)
same,GI50,[43],> 100 µM (inactive)
same,GI50,[44],> 100 µM (inactive)
same,GI50,[45],> 100 µM (inactive)
same,GI50,[46],> 100 µM (inactive)
same,GI50,[47],> 100 µM (inactive)
same,GI50,[48],> 100 µM (inactive)
same,GI50,[49],> 100 µM (inactive)
same,GI50,[50],> 100 µM (inactive)
same,GI50,[51],> 100 µM (inactive)
same,GI50,[52],> 100 µM (inactive)
same,GI50,[53],> 100 µM (inactive)
